This experiment has as its target T1, K-Ras G12C (Homo sapiens, UniProt P01116, G12C).
T1 construct: This protein contained 188 amino acids in total, including an N-terminal 6-Histidine tag; made in house; host or cells: E. coli BL21
The experiment is described as follows: CAF assay (% CAF; method in Example 7, not in this part). The class given is binding. To be noted: 10 uM compound, 1 h incubation.

With `C=CC(=O)N1CCN(c2nc(=O)n3c4c(c(-c5ccc(F)cc5)c(Cl)cc24)SC[C@@H]3CN2CCn3c(nnc3C(F)(F)F)C2)[C@@H](C)C1` [Example 444, (S)-7-((S)-4-acryloyl-2-methylpiperazin-1-yl)-9-chloro-10-(4-fluorophenyl)-3-((3-(trifluoromethyl)-5,6-dihydro-[1,2,4]triazolo[4,3-a]pyrazin-7(8H)-yl)methyl)-2H-[1,4]thiazino[2,3,4-ij]quinazolin-5(3H)-one], the “% CAF @ 10 uM, 1h” value is on record as 24.1%. For the compound `C=CC(=O)N1C[C@H](C)N(c2nc(=O)n3c4c(c(-c5ccc(F)cc5)c(Cl)cc24)SC[C@@H]3CN2CCn3c(nnc3C(F)(F)F)C2)C[C@H]1C` [Example 445, (S)-7-((2S,5R)-4-acryloyl-2,5-dimethylpiperazin-1-yl)-9-chloro-10-(4-fluorophenyl)-3-((3-(trifluoromethyl)-5,6-dihydro-[1,2,4]triazolo[4,3-a]pyrazin-7(8H)-yl)methyl)-2H-[1,4]thiazino[2,3,4-ij]quinazolin-5(3H)-one], the “% CAF @ 10 uM, 1h” value worked out at 68.2%. On to `C=CC(=O)N1CCN(c2nc(=O)n3c4c(c(-c5cc(Cl)c(F)cc5F)c(Cl)cc24)SC[C@@H]3COCOC)[C@@H](C)C1` [Example 446, (3S)-7-((S)-4-acryloyl-2-methylpiperazin-1-yl)-9-chloro-10-(5-chloro-2,4-difluorophenyl)-3-((methoxymethoxy)methyl)-2H-[1,4]thiazino[2,3,4-ij]quinazolin-5(3H)-one], for which the “% CAF @ 10 uM, 1h” value worked out at 38%. Next, `C=CC(=O)N1CCN(c2nc(=O)n3c4c(c(-c5cc(Cl)c(F)cc5F)c(Cl)cc24)SC[C@@H]3CN2CCn3c(nnc3C(F)(F)F)C2)[C@@H](C)C1` [Example 447, (3S)-7-((S)-4-acryloyl-2-methylpiperazin-1-yl)-9-chloro-10-(5-chloro-2,4-difluorophenyl)-3-((3-(trifluoromethyl)-5,6-dihydro-[1,2,4]triazolo[4,3-a]pyrazin-7(8H)-yl)methyl)-2H-[1,4]thiazino[2,3,4-ij]quinazolin-5(3H)-one]: 63.3%; `C=CC(=O)N1C[C@H](C)N(c2nc(=O)n3c4c(c(-c5cc(Cl)c(F)cc5F)c(Cl)cc24)SC[C@@H]3CN2CCn3c(nnc3C(F)(F)F)C2)C[C@H]1C` [Example 448, (3S)-7-((2S,5R)-4-acryloyl-2,5-dimethylpiperazin-1-yl)-9-chloro-10-(5-chloro-2,4-difluorophenyl)-3-((3-(trifluoromethyl)-5,6-dihydro-[1,2,4]triazolo[4,3-a]pyrazin-7(8H)-yl)methyl)-2H-[1,4]thiazino[2,3,4-ij]quinazolin-5(3H)-one]: 55%; `C=CC(=O)N1C[C@H](C)N(c2nc(=O)n3c4c(c(-c5cc(Cl)c(F)cc5F)c(Cl)cc24)SC[C@@H]3CN2CCC3(CC2)COC3)C[C@H]1C` [Example 449, (3S)-3-(2-oxa-7-azaspiro[3.5]nonan-7-ylmethyl)-7-((2S,5R)-4-acryloyl-2,5-dimethylpiperazin-1-yl)-9-chloro-10-(5-chloro-2,4-difluorophenyl)-2H-[1,4]thiazino[2,3,4-ij]quinazolin-5(3H)-one]: 51.6%. As for `C=CC(=O)N1CCN(c2nc(=O)n3c4c(c(-c5ccc(F)cc5F)c(C(F)(F)F)cc24)SCCC3)[C@@H](C)C1` [Example 450, 8-((S)-4-acryloyl-2-methylpiperazin-1-yl)-11-(2,4-difluorophenyl)-10-(trifluoromethyl)-3,4-dihydro-2H,6H-[1,4]thiazepino[2,3,4-ij]quinazolin-6-one], the “% CAF @ 10 uM, 1h” value is 61%. On to `C=C(F)C(=O)N1C2CC(=O)CC1CN(c1nc(=O)n3c4c(c(-c5ccc(F)cc5F)c(C(F)(F)F)cc14)SCCC3)C2` [Example 451, 11-(2,4-difluorophenyl)-8-(9-(2-fluoroacryloyl)-7-oxo-3,9-diazabicyclo[3.3.1]nonan-3-yl)-10-(trifluoromethyl)-3,4-dihydro-2H,6H-[1,4]thiazepino[2,3,4-ij]quinazolin-6-one], for which the “% CAF @ 10 uM, 1h” value was determined as 61%.

As to `C/C=C/C(=O)N1C2CC(=O)CC1CN(c1nc(=O)n3c4c(c(-c5ccc(F)cc5F)c(C(F)(F)F)cc14)SCC3)C2` [Example 452, (E)-7-(9-(but-2-enoyl)-7-oxo-3,9-diazabicyclo[3.3.1]nonan-3-yl)-10-(2,4-difluorophenyl)-9-(trifluoromethyl)-2,3-dihydro-5H-[1,4]thiazino[2,3,4-ij]quinazolin-5-one], the “% CAF @ 10 uM, 1h” value is 63%.

Consider `CC#CC(=O)N1C2CC(=O)CC1CN(c1nc(=O)n3c4c(c(-c5ccc(F)cc5F)c(C(F)(F)F)cc14)SCC3)C2` [Example 453, 7-(9-(but-2-ynoyl)-7-oxo-3,9-diazabicyclo[3.3.1]nonan-3-yl)-10-(2,4-difluorophenyl)-9-(trifluoromethyl)-2,3-dihydro-5H-[1,4]thiazino[2,3,4-ij]quinazolin-5-one], for which the “% CAF @ 10 uM, 1h” value is on record as 37%. Next, `C=CC(=O)N1CCN(c2nc(=O)n3c4c(c(-c5ccc(F)cc5F)c(C(F)(F)F)cc24)SC[C@@H](N(C)CC(F)(F)F)C3)[C@@H](C)C1` [Example 454, (3S)-8-((S)-4-acryloyl-2-methylpiperazin-1-yl)-11-(2,4-difluorophenyl)-3-(methyl(2,2,2-trifluoroethyl)amino)-10-(trifluoromethyl)-3,4-dihydro-2H,6H-[1,4]thiazepino[2,3,4-ij]quinazolin-6-one]: 61%. Consider `C=CC(=O)N1CCN(c2nc(=O)n3c4c(c(-c5c(F)cc(F)cc5F)c(C(F)(F)F)cc24)SCCC3)[C@@H](C)C1` [Example 455, (S)-8-(4-acryloyl-2-methylpiperazin-1-yl)-10-(trifluoromethyl)-11-(2,4,6-trifluorophenyl)-3,4-dihydro-2H,6H-[1,4]thiazepino[2,3,4-ij]quinazolin-6-one], for which the “% CAF @ 10 uM, 1h” value turned out to be 21%. For `C=CC(=O)N1CCN(c2nc(=O)n3c4c(c(-c5cc(Cl)c(F)cc5F)c(Cl)cc24)SC[C@@H]3CN2CCC3(CC2)COC3)[C@@H](C)C1` [Example 456, (3S)-3-(2-oxa-7-azaspiro[3.5]nonan-7-ylmethyl)-7((S)-4-acryloyl-2-methylpiperazin-1-yl)-9-chloro-10-(5-chloro-2,4-difluorophenyl)-2H-[1,4]thiazino[2,3,4-ij]quinazolin-5(3H)-one] the value was 77.6%. For the compound `C=CC(=O)N1CCN(c2nc(=O)n3c4c(c(-c5cc(Cl)c(F)cc5F)c(Cl)cc24)SC[C@@H]3CN2CCN(C3CC3)CC2)[C@@H](C)C1` [Example 458, (3S)-7-((S)-4-acryloyl-2-methylpiperazin-1-yl)-9-chloro-10-(5-chloro-2,4-difluorophenyl)-3-((4-cyclopropylpiperazin-1-yl)methyl)-2H-[1,4]thiazino[2,3,4-ij]quinazolin-5(3H)-one], the “% CAF @ 10 uM, 1h” value is 55.6%. With `C=CC(=O)N1C[C@H](C)N(c2nc(=O)n3c4c(c(-c5cc(F)c(F)cc5F)c(Cl)cc24)SC[C@@H]3CN2CCn3c(nnc3C(F)(F)F)C2)C[C@H]1C` [Example 459, (3S)-7-((2S,5R)-4-acryloyl-2,5-dimethylpiperazin-1-yl)-9-chloro-3-((3-(trifluoromethyl)-5,6-dihydro-[1,2,4]triazolo[4,3-a]pyrazin-7(8H)-yl)methyl)-10-(2,4,5-trifluorophenyl)-2H-[1,4]thiazino[2,3,4-ij]quinazolin-5(3H)-one], the “% CAF @ 10 uM, 1h” value was 82.2%.

As for `C=CC(=O)N1C[C@H](C)N(c2nc(=O)n3c4c(c(-c5cc(F)c(F)cc5F)c(Cl)cc24)SC[C@@H]3CN2CCC3(CC2)COC3)C[C@H]1C` [Example 460], the “% CAF @ 10 uM, 1h” value is 79.7%. Next, `C=CC(=O)N1C[C@H](C)N(c2nc(=O)n3c4c(c(-c5cc(Cl)c(F)cc5F)c(Cl)cc24)SC[C@@H]3CC2CCN(CC(F)F)CC2)C[C@H]1C` [Example 461, (3S)-7-((2S,5R)-4-acryloyl-2,5-dimethylpiperazin-1-yl)-9-chloro-10-(5-chloro-2,4-difluorophenyl)-3-((1-(2,2-difluoroethyl)piperidin-4-yl)methyl)-2H-[1,4]thiazino[2,3,4-ij]quinazolin-5(3H)-one]: 79.5%; `C=CC(=O)N1CCN(c2nc(=O)n3c4c(c(-c5ccc(F)cc5)c(Cl)cc24)SC[C@@H]3CN2CCC3(CC2)COC3)[C@@H](C)C1` [Example 462, (S)-3-(2-oxa-7-azaspiro[3.5]nonan-7-ylmethyl)-7-((S)-4-acryloyl-2-methylpiperazin-1-yl)-9-chloro-10-(4-fluorophenyl)-2H-[1,4]thiazino[2,3,4-ij]quinazolin-5(3H)-one]: 87.8%; `C=CC(=O)N1CCN(c2nc(=O)n3c4c(c(-c5cc(F)c(F)cc5F)c(Cl)cc24)SC[C@@H]3CN2CCn3c(nnc3C(F)(F)F)C2)[C@@H](C)C1` [Example 463, (3S)-7-((S)-4-acryloyl-2-methylpiperazin-1-yl)-9-chloro-3-((3-(trifluoromethyl)-5,6-dihydro-[1,2,4]triazolo[4,3-a]pyrazin-7(8H)-yl)methyl)-10-(2,4,5-trifluorophenyl)-2H-[1,4]thiazino[2,3,4-ij]quinazolin-5(3H)-one]: 69%. For `C=CC(=O)N1CCN(c2nc(=O)n3c4c(c(-c5ccc(F)cc5F)c(C(F)(F)F)cc24)SC[C@@H](OC)C3)[C@@H](C)C1` [Example 464, (3S)-8-((S)-4-acryloyl-2-methylpiperazin-1-yl)-11-(2,4-difluorophenyl)-3-methoxy-10-(trifluoromethyl)-3,4-dihydro-2H,6H-[1,4]thiazepino[2,3,4-ij]quinazolin-6-one] the value was 95%. Take `C=CC(=O)N1CCN(c2nc(=O)n3c4c(c(-c5ccc(F)cc5F)c(C(F)(F)F)cc24)SC[C@H](OC)C3)[C@@H](C)C1` [Example 465, (3R)-8-((S)-4-acryloyl-2-methylpiperazin-1-yl)-11-(2,4-difluorophenyl)-3-methoxy-10-(trifluoromethyl)-3,4-dihydro-2H,6H-[1,4]thiazepino[2,3,4-ij]quinazolin-6-one]: the “% CAF @ 10 uM, 1h” value stood at 96%.
